Measurements as given in the supplement of paper PMC10307832.

Legend:
Assay in all cases: relative viability (nuclei count vs DMSO), 5 days (fraction); higher = more cells survive
[1] = system: LC-2-ad; settings: first compound 0.5 µM
How it was run: (§1)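 Lung cancer cell lines were pin-tool dosed in 1536-well plates on the day after seeding, with either a lone drug or a fixed anchor-drug dose plus five library-drug doses (not always all listed) in √10 steps. Nuclei were counted on 4× images after 5 days. Relative viability is the ratio of treated-well to vehicle-well nuclei counts, with each value a median of duplicate plates.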

[2] = system: NCI-H2228
How it was run: as §1

[3] = system: ChaGo-K-1
How it was run: as §1

[4] = system: HARA
How it was run: as §1

[5] = system: HCC-15
How it was run: as §1

[6] = system: NCI-H358
How it was run: as §1

[7] = system: NCI-H838
How it was run: as §1

[8] = system: SK-LU-1
How it was run: as §1

[9] = system: NCI-H2405
How it was run: as §1

[10] = system: NCI-H2023
How it was run: as §1

[11] = system: COR-L23
How it was run: as §1

[12] = system: NCI-H1793
How it was run: as §1

Structure (SMILES): COc1cc2nccc(Oc3ccc(NC(=O)Nc4cc(C)on4)c(Cl)c3)c2cc1OC [Tivozanib] + N=C(N)NC(=N)NCCc1ccccc1 [Phenformin] (partner 250 µM)
- relative viability [1]: 0.387
- relative viability ([2]; first compound 0.005 µM): 0.306
- relative viability ([2]; first compound 0.01581 µM): 0.283
- relative viability ([2]; first compound 0.05 µM): 0.325
- relative viability ([2]; first compound 0.1581 µM): 0.288
- relative viability ([2]; first compound 0.5 µM): 0.406
- relative viability ([3]; first compound 0.005 µM): 0.474
- relative viability ([3]; first compound 0.01581 µM): 0.488
- relative viability ([3]; first compound 0.05 µM): 0.492
- relative viability ([3]; first compound 0.1581 µM): 0.507
- relative viability ([3]; first compound 0.5 µM): 0.433
- relative viability ([4]; first compound 0.005 µM): 0.452
- relative viability ([4]; first compound 0.01581 µM): 0.41
- relative viability ([4]; first compound 0.05 µM): 0.424
- relative viability ([4]; first compound 0.1581 µM): 0.364
- relative viability ([4]; first compound 0.5 µM): 0.489
- relative viability ([5]; first compound 0.005 µM): 0.421
- relative viability ([5]; first compound 0.01581 µM): 0.476
- relative viability ([5]; first compound 0.05 µM): 0.5
- relative viability ([5]; first compound 0.1581 µM): 0.581
- relative viability ([5]; first compound 0.5 µM): 0.426
- relative viability ([6]; first compound 0.005 µM): 0.306
- relative viability ([6]; first compound 0.01581 µM): 0.265
- relative viability ([6]; first compound 0.05 µM): 0.411
- relative viability ([6]; first compound 0.1581 µM): 0.301
- relative viability ([6]; first compound 0.5 µM): 0.447
- relative viability ([7]; first compound 0.005 µM): 0.538
- relative viability ([7]; first compound 0.01581 µM): 0.551
- relative viability ([7]; first compound 0.05 µM): 0.538
- relative viability ([7]; first compound 0.5 µM): 0.564
- relative viability ([8]; first compound 0.005 µM): 0.58
- relative viability ([8]; first compound 0.01581 µM): 0.549
- relative viability ([8]; first compound 0.05 µM): 0.629
- relative viability ([8]; first compound 0.1581 µM): 0.376
- relative viability ([8]; first compound 0.5 µM): 0.532
- relative viability ([9]; first compound 0.005 µM): 0.418
- relative viability ([9]; first compound 0.01581 µM): 0.401
- relative viability ([9]; first compound 0.05 µM): 0.436
- relative viability ([9]; first compound 0.1581 µM): 0.373
- relative viability ([9]; first compound 0.5 µM): 0.375
- relative viability ([10]; first compound 0.005 µM): 0.408
- relative viability ([10]; first compound 0.01581 µM): 0.421
- relative viability ([10]; first compound 0.05 µM): 0.426
- relative viability ([10]; first compound 0.1581 µM): 0.43
- relative viability ([10]; first compound 0.5 µM): 0.377
- relative viability ([11]; first compound 0.005 µM): 0.427
- relative viability ([11]; first compound 0.01581 µM): 0.433
- relative viability ([11]; first compound 0.05 µM): 0.446
- relative viability ([11]; first compound 0.1581 µM): 0.43
- relative viability ([11]; first compound 0.5 µM): 0.409
- relative viability ([12]; first compound 0.005 µM): 0.35
- relative viability ([12]; first compound 0.01581 µM): 0.352
- relative viability ([12]; first compound 0.05 µM): 0.419
- relative viability ([12]; first compound 0.1581 µM): 0.309
- relative viability ([12]; first compound 0.5 µM): 0.335
